In experiment [1] the target is T1, Pseudomonas aeruginosa DHPase (PaDHPase) (Pseudomonas aeruginosa, UniProt Q9I676).
T1 construct: made in house; host or cells: Escherichia coli BL21 (DE3)
The experiment can be described thus: Fluorescence quenching titration of wild-type PaDHPase. The class given is binding. The method, then: (§1) Through the fluorescence quenching analysis, the Kd value of the purified PaDHPase was determined. An aliquot of 5-AU was added into the solution containing PaDHPase (0.8 μM) and 50 mM HEPES at pH 7.0. The decrease in the intrinsic fluorescence of PaDHPase was measured at 336 nm upon excitation at 279 nm and 25°C with a spectrofluorimeter (Hitachi F-2700; Hitachi High-Technologies, Japan). The Kd was obtained using the equation: ΔF = ΔFmax − Kd(ΔF/[5-AU]).
Prior to this study, whether 5-AU could bind to DHPase remained unknown. To confirm if PaDHPase is capable of binding 5-AU, we used the fluorescence quenching method to determine the binding ability of PaDHPase (Figure 4). Quenching is a complex formation process that decreases the fluorescence intensity of protein. […] When 5-AU was titrated into the PaDHPase solution, the intrinsic fluorescence of the protein was progressively quenched. Upon the addition of 300 μM 5-AU, the intrinsic fluorescence of PaDHPase was quenched by 87.3%.
(§2) Figure 4 Fluorescence titration of PaDHPase with 5-AU. (a) The fluorescence emission spectra of PaDHPase with 5-AU of different concentrations (0–300 μM). The decrease in intrinsic fluorescence of protein was measured at 336 nm upon excitation at 279 nm with a spectrofluorimeter. […] (b) The fluorescence emission spectra of PaDHPase-Y155A with 5-AU of different concentrations (0–300 μM). (c) The fluorescence emission spectra of PaDHPase-S289A with 5-AU. (d) The fluorescence emission spectra of PaDHPase-N337A with 5-AU. (e) The fluorescence emission spectra of PaDHPase-C318A with 5-AU. (f) The fluorescence emission spectra of Znα-PaDHPase with 5-AU. (g) An aliquot amount of 5-AU was added to the enzyme solution for determining the Kd. The Kd was obtained by the equation: ΔF = ΔFmax − Kd(ΔF/[5-AU]). Data points are an average of 2–3 determinations within 10% error.

Experiment [2] concerns the target T2, Znα-PaDHPase (mono-Zn PaDHPase) (Pseudomonas aeruginosa, UniProt Q9I676).
T2 construct: made in house; host or cells: Escherichia coli BL21 (DE3)
Kind of experiment: Fluorescence quenching titration of mono-Zn PaDHPase. The class given is binding. The method, then: The mono-Zn PaDHPase was prepared using the protocol described previously. Purified PaDHPase was dialyzed against a chelating buffer (50 mM MES, 50 mM EDTA, and 15 mM 8-HQSA, pH 6.5; Buffer B) at room temperature for 3 days. The resultant enzyme solution was then dialyzed against Buffer A.
as §1, §2
To confirm the role of Znβ in 5-AU binding and to compare the binding contribution with other mutant proteins (Table 3), we produced mono-Zn PaDHPase (Znα-PaDHPase) for binding analysis. […] The binding of 5-AU to Znα-PaDHPase was also analyzed by the fluorescence quenching method (Figure 4(f)). Upon the addition of 300 μM 5-AU, the intrinsic fluorescence of Znα-PaDHPase was quenched by 49.3%. The Kd value of Znα-PaDHPase for 5-AU binding was calculated to be 281.5 ± 9.0 μM from the titration curve (Figure 4(g)). Based on the Kd values, the strength of complex formation with 5-AU followed the following order: the wild-type enzyme ≈ C318A > N337A > Y155A ≈ S289A > Znα-PaDHPase (Table 3).

Experiment [3] relates to biphasic interphase-mitotic (IM) cells. More on the design: method as in PMID 32328702. The conditions noted are these: cited from earlier work.
In the next experiment the target is T3, PaDHPase-S289A (Pseudomonas aeruginosa, UniProt Q9I676, S289A).
T3 construct: made in house; host or cells: Escherichia coli BL21 (DE3) (stated for the wild type; mutants purified by the same protocol)
The experiment can be described thus: Fluorescence quenching titration of PaDHPase-S289A mutant. It is filed as binding.
Description: (§3) The PaDHPase mutants were generated according to the QuikChange Site-Directed Mutagenesis kit protocol (Stratagene; La Jolla, CA, USA). The wild-type plasmid pET21b-PaDHPase was used as a template. The presence of the mutation was verified by DNA sequencing in each construct. The recombinant mutant proteins were purified using the protocol for the wild-type PaDHPase by Ni^2+-affinity chromatography (Table 1).
as §1, §2
(§4) 5-AU interacts with the main chains of residues Ser289 and Asn337 and the side chain of residue Tyr155. To investigate the contribution of individual amino acid residues to 5-AU binding, alanine substitution mutants (Table 2) were constructed and analyzed by fluorescence quenching (Figures 4(b)–4(d)).

For another experiment, the target named is T4, PaDHPase-C318A (Pseudomonas aeruginosa, UniProt Q9I676, C318A).
T4 construct: made in house; host or cells: Escherichia coli BL21 (DE3) (stated for the wild type; mutants purified by the same protocol)
Kind of experiment: Fluorescence quenching titration of PaDHPase-C318A mutant. The class given is binding.
Description: as §3, §1, §2
Structurally, Cys318 is involved in 5-FU [44] but not 5-AU. For comparison, the C318A mutant was also analyzed by fluorescence quenching (Figure 4(e)). […] The abilities of the wild-type PaDHPase and the C318A mutant to bind 5-AU are approximately equal. Thus, Cys318 is not essential for 5-AU binding.

In a further experiment the target is T5, PaDHPase-N337A (Pseudomonas aeruginosa, UniProt Q9I676, N337A).
T5 construct: made in house; host or cells: Escherichia coli BL21 (DE3) (stated for the wild type; mutants purified by the same protocol)
The experiment can be described thus: Fluorescence quenching titration of PaDHPase-N337A mutant. It is filed as binding.
Description: as §3, §1, §2, §4

The next experiment concerns the target T6, PaDHPase-Y155A (Pseudomonas aeruginosa, UniProt Q9I676, Y155A).
T6 construct: made in house; host or cells: Escherichia coli BL21 (DE3) (stated for the wild type; mutants purified by the same protocol)
Kind of experiment: Fluorescence quenching titration of PaDHPase-Y155A mutant. The class given is binding.
Description: as §3
Through the fluorescence quenching analysis, the Kd value of the purified PaDHPase was determined. An aliquot of 5-AU was added into the solution containing PaDHPase (0.8 μM) and 50 mM HEPES at pH 7.0. The decrease in the intrinsic fluorescence of PaDHPase was measured at 336 nm upon excitation at 279 nm and 25°C with a spectrofluorimeter (Hitachi F-2700; Hitachi High-Technologies, Japan). […]
Figure 4 Fluorescence titration of PaDHPase with 5-AU. (a) The fluorescence emission spectra of PaDHPase with 5-AU of different concentrations (0–300 μM). The decrease in intrinsic fluorescence of protein was measured at 336 nm upon excitation at 279 nm with a spectrofluorimeter. […] (b) The fluorescence emission spectra of PaDHPase-Y155A with 5-AU of different concentrations (0–300 μM). (c) The fluorescence emission spectra of PaDHPase-S289A with 5-AU. (d) The fluorescence emission spectra of PaDHPase-N337A with 5-AU. (e) The fluorescence emission spectra of PaDHPase-C318A with 5-AU. […]

Experiment [4] has as its target T1, Pseudomonas aeruginosa DHPase (PaDHPase). The following applies: read-out: Kd value of PaDHPase bound to 5-FU; wild-type PaDHPase ref 44; cited from earlier work.

The structures appear in SMILES notation. Read-outs that look alike come from different tables or passages of the source.

T5 sequence (Q9I676 whole entry N337A): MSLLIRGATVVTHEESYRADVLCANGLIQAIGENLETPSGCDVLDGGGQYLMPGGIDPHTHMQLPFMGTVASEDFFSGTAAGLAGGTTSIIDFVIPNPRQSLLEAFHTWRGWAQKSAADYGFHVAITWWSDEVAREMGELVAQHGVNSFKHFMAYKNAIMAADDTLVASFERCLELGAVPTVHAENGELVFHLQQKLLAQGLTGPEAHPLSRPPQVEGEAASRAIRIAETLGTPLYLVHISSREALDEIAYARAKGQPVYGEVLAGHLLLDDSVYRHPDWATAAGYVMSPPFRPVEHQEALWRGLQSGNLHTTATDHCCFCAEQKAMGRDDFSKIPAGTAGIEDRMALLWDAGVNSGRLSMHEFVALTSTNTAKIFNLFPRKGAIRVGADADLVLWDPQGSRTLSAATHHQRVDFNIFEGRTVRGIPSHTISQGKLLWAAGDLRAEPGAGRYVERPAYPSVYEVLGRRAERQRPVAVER
T4 sequence (Q9I676 whole entry C318A): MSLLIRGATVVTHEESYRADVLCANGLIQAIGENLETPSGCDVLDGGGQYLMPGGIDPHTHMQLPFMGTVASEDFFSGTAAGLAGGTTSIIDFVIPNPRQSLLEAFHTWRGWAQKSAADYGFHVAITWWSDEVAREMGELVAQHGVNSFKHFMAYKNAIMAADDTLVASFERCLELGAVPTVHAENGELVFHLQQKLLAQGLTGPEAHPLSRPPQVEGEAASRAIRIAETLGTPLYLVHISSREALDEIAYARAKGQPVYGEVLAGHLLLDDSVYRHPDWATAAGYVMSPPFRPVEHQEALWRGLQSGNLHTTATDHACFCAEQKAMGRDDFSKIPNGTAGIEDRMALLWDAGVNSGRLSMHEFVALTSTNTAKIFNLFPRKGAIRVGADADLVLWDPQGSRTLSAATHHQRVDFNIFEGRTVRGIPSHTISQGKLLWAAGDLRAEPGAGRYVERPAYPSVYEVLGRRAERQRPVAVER
T3 sequence (Q9I676 whole entry S289A): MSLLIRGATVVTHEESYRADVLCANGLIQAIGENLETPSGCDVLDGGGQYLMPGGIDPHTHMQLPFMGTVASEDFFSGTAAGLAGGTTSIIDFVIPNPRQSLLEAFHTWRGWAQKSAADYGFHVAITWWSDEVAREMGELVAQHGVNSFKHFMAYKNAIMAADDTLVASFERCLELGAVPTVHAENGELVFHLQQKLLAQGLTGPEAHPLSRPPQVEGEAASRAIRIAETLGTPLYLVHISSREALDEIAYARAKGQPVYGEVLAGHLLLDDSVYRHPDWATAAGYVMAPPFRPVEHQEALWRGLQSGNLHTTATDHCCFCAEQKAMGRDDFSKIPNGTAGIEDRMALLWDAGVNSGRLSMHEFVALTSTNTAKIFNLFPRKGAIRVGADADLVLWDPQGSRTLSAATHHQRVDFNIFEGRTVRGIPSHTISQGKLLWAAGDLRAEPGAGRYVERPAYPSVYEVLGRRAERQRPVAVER
T2 sequence (Q9I676 whole entry): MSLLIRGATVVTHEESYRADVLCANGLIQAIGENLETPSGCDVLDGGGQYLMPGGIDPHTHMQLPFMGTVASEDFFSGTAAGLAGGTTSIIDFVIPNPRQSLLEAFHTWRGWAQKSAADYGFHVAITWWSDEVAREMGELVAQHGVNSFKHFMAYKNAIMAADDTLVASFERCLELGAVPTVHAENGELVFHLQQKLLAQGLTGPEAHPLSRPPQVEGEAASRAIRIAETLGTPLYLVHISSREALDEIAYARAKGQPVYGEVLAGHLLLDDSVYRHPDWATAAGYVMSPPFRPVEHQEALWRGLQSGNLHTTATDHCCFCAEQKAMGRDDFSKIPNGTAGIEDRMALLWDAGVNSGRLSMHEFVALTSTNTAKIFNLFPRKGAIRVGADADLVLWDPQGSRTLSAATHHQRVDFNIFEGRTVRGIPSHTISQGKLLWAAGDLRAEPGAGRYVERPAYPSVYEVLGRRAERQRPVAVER
T1 sequence (Q9I676 whole entry): as above
T6 sequence (Q9I676 whole entry Y155A): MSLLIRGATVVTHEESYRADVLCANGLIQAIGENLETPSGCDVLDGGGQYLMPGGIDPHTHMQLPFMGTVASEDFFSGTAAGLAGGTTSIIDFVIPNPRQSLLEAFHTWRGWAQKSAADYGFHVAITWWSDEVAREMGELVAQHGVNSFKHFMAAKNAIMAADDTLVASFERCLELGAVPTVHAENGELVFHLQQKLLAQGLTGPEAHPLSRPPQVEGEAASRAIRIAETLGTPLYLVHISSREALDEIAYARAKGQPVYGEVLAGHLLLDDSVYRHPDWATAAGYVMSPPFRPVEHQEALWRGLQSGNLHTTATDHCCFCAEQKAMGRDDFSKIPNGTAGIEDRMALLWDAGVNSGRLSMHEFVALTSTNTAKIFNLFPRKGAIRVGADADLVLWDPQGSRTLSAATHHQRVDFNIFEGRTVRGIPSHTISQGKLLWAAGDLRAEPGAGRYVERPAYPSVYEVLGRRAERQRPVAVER

As for `Nc1c[nH]c(=O)[nH]c1=O` [5-AU, 5-aminouracil], the Kd in experiment [1] amounted to 97.7 ± 2 µM; in experiment [2], 281 ± 9 µM; on PaDHPase-S289A, 256 ± 3.2 µM; at PaDHPase-C318A, 103 ± 3.1 µM; on PaDHPase-N337A it was 192 ± 8 µM; on PaDHPase-Y155A, 247 ± 4 µM. For the same compound, the “Quenching (%) of intrinsic fluorescence” value stood at 87.3% in experiment [1] (wild-type PaDHPase, 300 μM 5-AU, emission 336 nm, excitation 279 nm) and 49.3% in experiment [2] (Znα-PaDHPase (mono-Zn), 300 μM 5-AU). Besides, the λ max result in experiment [1] (wild-type PaDHPase, emission maximum before and after adding 5-AU) is recorded as “From 336.5 to 343”; in experiment [2] (Znα-PaDHPase, emission maximum before and after adding 5-AU) it was “From 335 to 336.5”; at PaDHPase-S289A (PaDHPase-S289A, emission maximum before and after adding 5-AU), “From 337 to 339”; on PaDHPase-C318A (PaDHPase-C318A, emission maximum before and after adding 5-AU) it was “From 336 to 342”; on PaDHPase-N337A (PaDHPase-N337A, emission maximum before and after adding 5-AU), “From 336 to 339.5”; at PaDHPase-Y155A (PaDHPase-Y155A, emission maximum before and after adding 5-AU) it was “From 336.5 to 342”. In addition, the λ em shift is on record as approximately 6.5 nm in experiment [1] (wild-type PaDHPase, red shift on adding 5-AU); 1.5 nm in experiment [2] (Znα-PaDHPase); 2.0 nm on PaDHPase-S289A (PaDHPase-S289A); 6.0 nm on PaDHPase-C318A (PaDHPase-C318A); 3.5 nm on PaDHPase-N337A (PaDHPase-N337A). Further, in experiment [3], the “induction of biphasic interphase-mitotic (IM) cells” value was “significantly induce biphasic interphase-mitotic (IM) cells”.

Regarding `O=c1[nH]cc(F)c(=O)[nH]1` [5-FU, 5-fluorouracil], the “induction of biphasic interphase-mitotic (IM) cells” value in experiment [3] is on record as “no induction of IM cells was detected”. For the same compound, in experiment [4], the Kd was 133 ± 8.5 µM.

The record behind these values is paper PMC8860565, “Molecular Insights into How the Dimetal Center in Dihydropyrimidinase Can Bind the Thymine Antagonist 5-Aminouracil: A Different Binding Mode from the Anticancer Drug 5-Fluorouracil” (Bioinorganic Chemistry and Applications, 2022).
